Data taken from patent US20230226005A1, “Methods of Treating, Ameliorating, Shortening Duration, and/or Reversing Symptoms and/or Complications of a Coronavirus Infection” (Yale University, priority 2020, published 2023).

Legend:
[1] = system: COVID-19 infection; test: Phase IIa study: COVID-19 PRO frequency score; type: in vivo, human
Source text: Subjects were enrolled in two cohorts. The treatment cohort consists of subjects receiving camostat mesylate, and the control cohort consists of subjects receiving a placebo. […] The control cohort received a placebo four times daily for seven days.
Subjects self-administered Likert-type symptom score evaluations daily from days 0-14, wherein subjects provided a ranking (i.e., 0—not at all, 1—a little bit, 2—somewhat, 3—quite a bit, and 4—very much) in response to various symptoms (e.g., nose, throat, eyes, chest/respiratory, gastrointestinal, body/systemic, and smell/taste symptoms) (Table 1).
The COVID-19 PRO daily self-score tool consists of 39 items that are answered daily by the subject. Items 1-33 are Likert-scale questions (e.g., rated 0-4), wherein 0=not at all, and 4=very much. These items are summed to score the severity of symptoms, wherein a total score of 132 would indicate the greatest severity of symptoms and a score of 0 would indicate no severity of symptoms.
Additional statistical models were applied to the raw data, which are provided herein (Tables 8-10).

[2] = system: COVID-19 infection; test: Phase IIa study: throat-family symptom score; type: in vivo
[3] = system: SARS-CoV-2 cellular entry; details: in vitro as well as in vivo; cited from earlier work

Structure (SMILES): CN(C)C(=O)COC(=O)Cc1ccc(OC(=O)c2ccc(NC(=N)N)cc2)cc1 [camostat, 4-[[4-[(Aminoiminomethyl)amino]benzoyl]oxy]benzeneacetic acid 2-(dimethylamino)-2-oxoethyl ester]
- frequency score, Fitzmaurice mixed effects model, A: Camostat arm ([1]; day 0): 6.25 (0.47)
- frequency score, Fitzmaurice mixed effects model, B − A (placebo − camostat) ([1]; day 0): 0
- frequency score, Fitzmaurice mixed effects model, A: Camostat arm ([1]; day 1): 6.49 (0.57)
- frequency score, Fitzmaurice mixed effects model, B − A (placebo − camostat) ([1]; day 1): −0.05 (0.67)
- frequency score, Fitzmaurice mixed effects model, A: Camostat arm ([1]; day 2): 5.51 (0.59)
- frequency score, Fitzmaurice mixed effects model, B − A (placebo − camostat) ([1]; day 2): −0.03 (0.68)
- frequency score, Fitzmaurice mixed effects model, A: Camostat arm ([1]; day 3): 5.88 (0.58)
- frequency score, Fitzmaurice mixed effects model, B − A (placebo − camostat) ([1]; day 3): −0.42 (0.67)
- frequency score, Fitzmaurice mixed effects model, A: Camostat arm ([1]; day 4): 5.64 (0.58)
- frequency score, Fitzmaurice mixed effects model, B − A (placebo − camostat) ([1]; day 4): −1.05 (0.68)
- frequency score, Fitzmaurice mixed effects model, A: Camostat arm ([1]; day 5): 5.54 (0.58)
- frequency score, Fitzmaurice mixed effects model, B − A (placebo − camostat) ([1]; day 5): −0.96 (0.68)
- frequency score, Fitzmaurice mixed effects model, A: Camostat arm ([1]; day 6): 4.75 (0.58)
- frequency score, Fitzmaurice mixed effects model, B − A (placebo − camostat) ([1]; day 6): −0.41 (0.68)
- frequency score, Fitzmaurice mixed effects model, A: Camostat arm ([1]; day 7): 4.62 (0.59)
- frequency score, Fitzmaurice mixed effects model, B − A (placebo − camostat) ([1]; day 7): −0.51 (0.68)
- frequency score, Fitzmaurice mixed effects model, A: Camostat arm ([1]; day 8): 4.39 (0.6)
- frequency score, Fitzmaurice mixed effects model, B − A (placebo − camostat) ([1]; day 8): −0.9 (0.7)
- frequency score, Fitzmaurice mixed effects model, A: Camostat arm ([1]; day 9): 3.98 (0.59)
- frequency score, Fitzmaurice mixed effects model, B − A (placebo − camostat) ([1]; day 9): −0.54 (0.69)
- frequency score, Fitzmaurice mixed effects model, A: Camostat arm ([1]; day 10): 3.96 (0.6)
- frequency score, Fitzmaurice mixed effects model, B − A (placebo − camostat) ([1]; day 10): −0.98 (0.69)
- frequency score, Fitzmaurice mixed effects model, A: Camostat arm ([1]; day 11): 3.8 (0.6)
- frequency score, Fitzmaurice mixed effects model, B − A (placebo − camostat) ([1]; day 11): −0.9 (0.7)
- frequency score, Fitzmaurice mixed effects model, A: Camostat arm ([1]; day 12): 2.75 (0.6)
- frequency score, Fitzmaurice mixed effects model, B − A (placebo − camostat) ([1]; day 12): −0.28 (0.7)
- frequency score, Fitzmaurice mixed effects model, A: Camostat arm ([1]; day 13): 2.66 (0.62)
- frequency score, Fitzmaurice mixed effects model, B − A (placebo − camostat) ([1]; day 13): −0.22 (0.72)
- frequency score, Fitzmaurice mixed effects model, A: Camostat arm ([1]; day 14): 2.44 (0.61)
- frequency score, Fitzmaurice mixed effects model, B − A (placebo − camostat) ([1]; day 14): −0.13 (0.72)
- throat-family symptom score, Fitzmaurice model, Camostat ([2]; day 0): 2.3 (0.3)
- throat-family symptom score, Fitzmaurice model, Camostat ([2]; day 1): 2 (0.3)
- throat-family symptom score, Fitzmaurice model, Effect (placebo vs camostat) ([2]; day 1): −0.7 (0.4)
- throat-family symptom score, Fitzmaurice model, Camostat ([2]; day 2): 1.7 (0.4)
- throat-family symptom score, Fitzmaurice model, Effect (placebo vs camostat) ([2]; day 2): −0.8 (0.4)
- throat-family symptom score, Fitzmaurice model, Camostat ([2]; day 3): 1.6 (0.3)
- throat-family symptom score, Fitzmaurice model, Effect (placebo vs camostat) ([2]; day 3): −0.7 (0.4)
- throat-family symptom score, Fitzmaurice model, Camostat ([2]; day 4): 1.7 (0.3)
- throat-family symptom score, Fitzmaurice model, Effect (placebo vs camostat) ([2]; day 4): −0.9 (0.4)
- throat-family symptom score, Fitzmaurice model, Camostat ([2]; day 5): 1.1 (0.3)
- throat-family symptom score, Fitzmaurice model, Effect (placebo vs camostat) ([2]; day 5): −0.2 (0.4)
- throat-family symptom score, Fitzmaurice model, Camostat ([2]; day 6): 0.9 (0.4)
- throat-family symptom score, Fitzmaurice model, Effect (placebo vs camostat) ([2]; day 6): −0.1 (0.4)
- throat-family symptom score, Fitzmaurice model, Camostat ([2]; day 7): 0.7 (0.4)
- throat-family symptom score, Fitzmaurice model, Effect (placebo vs camostat) ([2]; day 7): −0.3 (0.4)
- throat-family symptom score, Fitzmaurice model, Camostat ([2]; day 8): 0.6 (0.4)
- throat-family symptom score, Fitzmaurice model, Effect (placebo vs camostat) ([2]; day 8): −0.2 (0.4)
- throat-family symptom score, Fitzmaurice model, Camostat ([2]; day 9): 0.4 (0.4)
- throat-family symptom score, Fitzmaurice model, Effect (placebo vs camostat) ([2]; day 9): −0.1 (0.4)
- throat-family symptom score, Fitzmaurice model, Camostat ([2]; day 10): 0.5 (0.4)
- throat-family symptom score, Fitzmaurice model, Effect (placebo vs camostat) ([2]; day 10): −0.4 (0.4)
- throat-family symptom score, Fitzmaurice model, Camostat ([2]; day 11): 0.6 (0.4)
- throat-family symptom score, Fitzmaurice model, Effect (placebo vs camostat) ([2]; day 11): −0.4 (0.4)
- throat-family symptom score, Fitzmaurice model, Camostat ([2]; day 12): 0.5 (0.4)
- throat-family symptom score, Fitzmaurice model, Effect (placebo vs camostat) ([2]; day 12): −0.4 (0.4)
- throat-family symptom score, Fitzmaurice model, Camostat ([2]; day 13): 0.5 (0.4)
- throat-family symptom score, Fitzmaurice model, Effect (placebo vs camostat) ([2]; day 13): −0.4 (0.5)
- throat-family symptom score, Fitzmaurice model, Camostat ([2]; day 14): 0.5 (0.4)
- throat-family symptom score, Fitzmaurice model, Effect (placebo vs camostat) ([2]; day 14): −0.5 (0.5)
- SARS-CoV-2 cellular entry [3]: can be blocked
